Assays:
[1] = Ocular distribution of Compound IIIC after intravitreal administration (LC-MS/MS of ocular tissues); type: in vivo, New Zealand White rabbits; conditions: for Levels in the lens: intravitreal
Description: New Zealand White rabbits obtained from the Western Oregon Rabbit Company were used for this study. 12 animals were used in this study, and all animals used were male. Prior to treatment initiation, selection of animals for the study was based on a visual appraisal of good clinical condition and body weight specifications. Animals selected for use in this study were as uniform in age and weight as possible. Animal's weights ranged from about 2.58 to about 3.22 kilograms at the start of the experiment. All animals were healthy at the time of animal selection. All animals were identified by ear tag and by cage cards listing the animal identification number, study number, group, and sex of the animal.
The compound of formula IIIC was tested at two different concentrations, 3% weight/volume and 0.5% weight/volume. For both concentrations the compound was formulated as an aqueous suspension. Details of the formulations are as follows: Formulation 1: 3% of ˜500 nm nanoparticles of a compound of formula IIIC in 0.6% tromethamine as buffer, 0.1% polysorbate-80 to aide in dispersion of the API, pH adjusted with boric acid to 7.4, and osmolarity adjusted with mannitol to 293 mOsm. Formulation 2: 0.5% of ˜500 nm nanoparticles of a compound of formula IIIC in 0.6% tromethamine as buffer, 0.1% polysorbate-80 to aide in dispersion of the API, pH adjusted with boric acid to 7.4, and osmolarity adjusted with mannitol to 293 mOsm.
Animals were assigned to one of two experimental groups based on body weight, such that each group contained 6 animals. Animals in group 1 were administered 25 μL for formulation 1 by intravitreous injection, while animals in group 2 were administered 25 μL of formulation 2. Within each group animals were further divided into 3 time points, 2 hours, 1 day and 7 days. Each time point consisted of two animals. Administration of formulations 1 and 2 occurred at time 0.
For intravitreal injections animals were anesthetized with an intramuscular injection of ketamine hydrochloride (12 to 20 mg/kg) and xylazine (5 mg/kg). One to two drops of topical proparacaine hydrochloride anesthetic (0.5%) were applied to the animal's eyes prior to the surgical procedure. The eyes were cleaned with Betadine and then rinsed with balanced salt solution (BSS). Test article was drawn up directly into a 0.3 mL insulin syringe with a 31G 5/16 inch needle, and injections were made 4 to 5 mm away from the limbus. Once the needle was inserted, 25 μL of the test article was injected. The needle was removed and the eye rinsed with BSS. […] Animals were monitored during recovery.
Animals were euthanized at the designated time points by an intravenous injection of pentobarbital (150 mg/kg). […] The concentration of compound IIIC in each collected sample was measured by LC-MS/MS. […]

[2] = Ex vivo human tissue pharmacokinetic experiment: entire human globes soaked six days, C29 exposure in areas of the eye; type: in vitro ADME; conditions: for Calculated Concentration: globe soaked in 1 mM API in 8% cyclodextrin in PBS, six days, room temperature; for Dilution Corrected Concentration: six days soak, 1 mM API in 8% cyclodextrin in PBS
Method: Pharmacokinetic experiments were performed on entire human globes (eye without appendages) to determine exposure of the compound (C29) in various areas of the eye. Each globe was obtained less than 24 hours after collection and then soaked in either a solution of 1 mM API in 8% cyclodextrin in PBS or only PBS for six days at room temperature.

[3] = Kinetics of compound accumulation in the lens of entire human globes soaked one to four days; type: in vitro ADME; conditions: human globes in 1 mM API in 8% cyclodextrin in PBS, room temperature
Method: In a similar experiment, entire human globes were used to determine the kinetics of compound accumulation in the lens. A total of eight globes were soaked in a solution of 1 mM API in 8% cyclodextrin in PBS for one, two, three, or four days at room temperature.

levels in the vitreous humor, course over time ([1]; intravitreal 25 μL, 3% and 0.5% formulation, 2 hr, 24 hr, 168 hr): decreased steadily at later time points | levels in the vitreous humor, dependence on dose ([1]; intravitreal 25 μL, 3% versus 0.5% formulation, 2 hr, 24 hr, 168 hr): dose-dependent | Levels in the lens ([1]; earlier time points): undetectable | Calculated Concentration ([2]; Human Cornea): 2120 nM | Dilution Corrected Concentration ([2]; Human Cornea): 4.24 µM | Calculated Concentration ([2]; Human Iris): 1330 nM | Dilution Corrected Concentration ([2]; Human Iris): 2.66 µM | Calculated Concentration ([2]; Human Lens): 7620 nM | Dilution Corrected Concentration ([2]; Human Lens): 15.24 µM | Calculated Concentration ([2]; Human Retina): 4310 nM | Dilution Corrected Concentration ([2]; Human Retina): 8.62 µM | Calculated Concentration ([2]; Human Vitreous Humor): 2410 nM | Dilution Corrected Concentration ([2]; Human Vitreous Humor): 4.82 µM | Average Concentration in Lens ([3]; 1 day of incubation): 14.5 µM | Average Concentration in Lens ([3]; 2 days of incubation): 20.7 µM | Average Concentration in Lens ([3]; 3 days of incubation): 39.8 µM | Average Concentration in Lens ([3]; 4 days of incubation): 37.8 µM
SMILES: C[C@H](CCCC(C)(C)O)[C@H]1CC[C@H]2[C@@H]3CC=C4C[C@@H](O)CC[C@]4(C)[C@H]3CC[C@]12C [Compound C29, 25-hydroxycholesterol]
Levels in the lens ([1]; higher-dosed group, last time point (7 days after dosing)): consistently exhibiting detectable levels

Source: patent publication US20180250313A1, “COMPOUNDS AND FORMULATIONS FOR TREATING OPHTHALMIC DISEASES” (VIEWPOINT THERAPEUTICS, INC., priority 2015, published 2018)
